Experiments:
hsp-3 = hsp-3 expression upon ER stress (Northern blot, quantitative Taqman RT-PCR); type: in vivo, C. elegans; details: wild-type 1.5 day-old L2 larvae, 4 hours
Protocol: (§1) For Northern analysis, mixed-stage nematodes grown in liquid culture were treated with 3 mM of DTT (Calbiochem) for up to 8 hours. Heat-shock treatment was performed at 30° C. for 1 hour. For single worm analysis, individual L2 larvae grown on plates were treated with 2.5 mM of DTT or 28 μg/ml of tunicamycin (Calbiochem) for 4 hours. To study survival to tunicamycin, gravid adults were allowed to lay eggs on plates containing tunicamycin (0 to 7.5 μg/ml) for 4 hours and then removed from the plates. Eggs were counted and studied 3 days later.
Total RNA preparation and Northern blot analysis was performed as described (Chen et al., 2000). The blot was hybridized sequentially with digoxigenin (DIG)-labeled DNA probes for hsp-3 and for 26S rRNA prepared with DIG-high prime labeling Kit (Roche).
Taqman RT-PCR was performed as described by Heid et al. (1996). The lack of DNA contamination in RNA preparations was confirmed by a 1000-fold decrease in quantitative PCR yield when reverse transcriptase was omitted. A unique sequence in the 3′UTR of act-1 and act-3 was amplified using Taqman PCR (primers act-F/act-R and act-probe). The primers (hsp-3-F/hsp-3-R) and the hsp-3-probe probe were used for detecting hsp-3 transcripts. The primers (hsp-4-F and hsp-4-R) and the hsp-4-probe probe were used for detecting hsp-4 transcripts. […]

hsp-4 = hsp-4 expression upon ER stress (quantitative Taqman RT-PCR); type: in vivo, C. elegans; details: wild-type 1.5 day-old L2 larvae, 4 hours
Protocol: as §1
Taqman RT-PCR was performed as described by Heid et al. (1996). The lack of DNA contamination in RNA preparations was confirmed by a 1000-fold decrease in quantitative PCR yield when reverse transcriptase was omitted. A unique sequence in the 3′UTR of act-1 and act-3 was amplified using Taqman PCR (primers act-F/act-R and act-probe). The primers (hsp-3-F/hsp-3-R) and the hsp-3-probe probe were used for detecting hsp-3 transcripts. The primers (hsp-4-F and hsp-4-R) and the hsp-4-probe probe were used for detecting hsp-4 transcripts. The relative expression of hsp-3 and hsp-4 was normalized to the average signals of act-1/act-3.

Xbp1 mRNA [1] = assay: Northern blot analysis of Xbp1 mRNA in MEFs; type: cell-based, mouse; details: 10 μg/ml, 6 hr
Protocol: FIG. 15F depicts a Northern blot analysis of Xbp1 mRNA in IRE1α-null MEFs. Wild-type and IRE1α-null MEFs were treated with or without 10 μg/ml tunicamycin for 6 hr prior to harvesting total RNA for Northern blot analysis. The blots were probed with [α-^32P]-labeled 0.94-kb XhoI fragment of XBP1-u and [β-actin cDNA.
(§2) Southern and Northern blot analysis followed standard procedures (Sambrook et al., 1989). [^32P]-labeled probes were prepared using a random prime labeling system (Amersham Pharmacia, Piscataway, N.J.). A 0.5-kb BamHI-XhoI fragment from the BS-mIRE1α targeting vector or a 3.6-kb EcoRI-XbaI fragment from pED-hIRE1α cDNA (Tirasophon et al., 2000) were used for Southern and Northern analysis, respectively. The probes for Northern analysis of mXbp1, BiP and GRP94 were a 0.94-kb XhoI fragment of pcDNA-mXbp1-u, the EcoRI-PstI fragment of hamster BiP (Ting et al., 1987), and a 146-bp PCR fragment of mouse GRP94 (from 142 to 287 of the coding region), respectively.

BiP mRNA [2] = assay: Northern blot analysis of BiP mRNA in MEFs; type: cell-based, mouse; details: tunicamycin for 6 hr
Protocol: (§3) FIGS. 12E and 12F depict a Northern blot analysis of wild-type and IRE1α-null MEFs. One blot was probed with [α-^32P]-labeled hamster BiP cDNA and β-actin cDNA (E) and another blot was probed with [α-^32P]-labeled mouse GRP94 DNA and β-actin cDNA (F).
as §2

Xbp1 mRNA [3] = assay: Northern blot analysis of Xbp1 mRNA in CHO cells; type: cell-based, Chinese hamster; details: 2 μg/ml, 16 hours
Protocol: (§4) FIG. 17E depicts a Northern blot analysis of BiP and Xbp1 mRNA in S2P-deficient cells. Wild-type and S2P-deficient CHO cells were treated with or without 2 μg/ml tunicamycin for 16 hours prior to harvesting total RNA for Northern blot analysis using hamster BiP, XBP1-u and β-actin cDNA as probes.
as §2

IRE1 [4] = assay: XBP1-EGFP reporter of IRE1 activation in murine embryonic fibroblast cells; type: cell-based
Description: (§5) COS-1 monkey cells were transfected by either diethylaminoethyl (DEAE)-dextran (Kaufman, 1997) or Calcium Phosphate-BES methods (Ausubel et al, 1999). Chinese hamster ovary (CHO) cells were transfected by either lipofectAMINE PLUS (Life Technology) or FuGENE6 (Roche). Murine embryonic fibroblasts (MEFs) were transfected by either FuGENE6 (Roche) or Effectine (QIAGEN). IRE1 activation was monitored by immunoprecipitation and western analysis.
(§6) XBP1 splicing was also monitored by RT-PCR analysis of RNAs using primers designed to amplify the region encompassing the overlap between open reading frame 1 (ORF1) and ORF2 within XBP1 mRNA (see Lee et al., Genes and Dev. 2002). XBP1 splicing may also be monitored by assessing the expression of a reporter gene that is regulated by splicing of the XBP1 intron. The coding region of EGFP, Luciferase or β-galactosidase was fused to the mouse XBP1 ORF1 downstream of the XBP1 intron. Transcription of the construct is under control of the constitutively expressed CMV promoter. Therefore, expression of the XBP1-EGFP, XBP1-Luciferase or XBP1-β-galactosidase fusion protein is regulated by splicing of the XBP1 intron.
(§7) At 48 hours after transfection, cells were treated with 10 ug/ml tunicamycin to inhibit N-linked glycosylation. […] Therefore, this construct is instrumental in monitoring IRE1 activation.

C. elegans = assay: survival to tunicamycin (eggs laid on plates, studied after 3 days); type: in vivo; details: for animals arrested at or prior to the L3 stage / animals matured to the L4 stage or older / dead animals: after 3 days
Description: Eggs from each strain were laid on plates containing different concentrations of tunicamycin, counted, and studied after 3 days. The number of eggs studied is listed above each column. The X-axis represents tunicamycin concentration. The total worm population was grouped into three fractions: animals that matured to L4 or older, animals that arrested at or prior to the L3 stage, and dead animals. Each fraction was plotted as the percentage of total eggs laid (Y-axis).
as §1

BiP mRNA [5] = assay: Northern blot analysis of BiP mRNA in CHO cells; type: cell-based, Chinese hamster; details: 2 μg/ml, 16 hours
Protocol: as §4, §2

GRP94 mRNA = assay: Northern blot analysis of GRP94 mRNA in MEFs; type: cell-based, mouse; details: 10 μg/ml, 6 hr
Protocol: as §3, §2

IRE1 [6] = assay: XBP1-EGFP reporter of IRE1 activation in COS-1 cells; type: cell-based, monkey; details: 10 ug/ml, after 8 and 16 hours
Description: as §5, §6, §7

## O[C@H](CS)[C@H](O)CS (racemic) [DTT, dithiothreitol]
hsp-3; DTT 2.5 mM
  hsp-3 induction: ~9.3 fold
hsp-4; DTT 2.5 mM
  hsp-4 induction: 61 fold

## tunicamycin
Xbp1 mRNA [1]; IRE1α-null MEFs
  Xbp1 mRNA induction: 4.0 fold
Xbp1 mRNA [1]; wild-type MEFs
  Xbp1 mRNA induction: 3.1 fold
BiP mRNA [2]
  reduction of BiP mRNA induction in IRE1α-null MEFs compared with wild-type: 10%
Xbp1 mRNA [3]; S2P-deficient CHO cells
  Xbp1 mRNA induction: 2.9 fold
Xbp1 mRNA [3]; wild-type CHO cells
  Xbp1 mRNA induction: 3.1 fold
hsp-3; tunicamycin 28 μg/ml
  hsp-3 induction: ~3.9 fold
IRE1 [4]; control murine embryonic fibroblast cells
  fluorescence of cells expressing the XBP1-EGFP construct: intense fluorescsence
IRE1 [4]; murine embryonic fibroblast cells deleted in both IRE1α alleles
  fluorescence of cells expressing the XBP1-EGFP construct: no fluorescence was detected
C. elegans; IRE1(v33) mutants, 2 μg/ml
  animals arrested at or prior to the L3 stage: 60%
  animals matured to the L4 stage or older: 9%
  dead animals: 31%
C. elegans; N2, 5 μg/ml
  animals arrested at or prior to the L3 stage: 29%
  animals matured to the L4 stage or older: 8%
  dead animals: 63%
C. elegans; N2, plates with 0 to 7.5 μg/ml
  concentration at which growth of N2 animals was affected: ≥ 5 µg/mL
C. elegans; PEK1(ok275) mutants, 2 μg/ml
  animals arrested at or prior to the L3 stage: 31%
  animals matured to the L4 stage or older: 35%
  dead animals: 34%
BiP mRNA [5]; S2P-deficient CHO cells
  BiP mRNA induction: 2.6 fold
BiP mRNA [5]; wild-type CHO cells
  BiP mRNA induction: 34 fold
GRP94 mRNA; IRE1α-null MEFs
  GRP94 mRNA induction: 5.4 fold
GRP94 mRNA; wild-type MEFs
  GRP94 mRNA induction: 6.7 fold
hsp-4; tunicamycin 28 μg/ml
  hsp-4 induction: 29 fold
IRE1 [6]
  fluorescence of cells transfected with the XBP1-EGFP construct: bright fluoresence
